Test results as given in US20230053540A1, “TREATMENT OF LIVER INJURY” (Massachusetts Institute of Technology, priority 2019, published 2023).

Test system: hepatocytes
Assay: Seq-Well scRNA-Seq of hepatocytes after APAP overdose (signature scores, DEG vs untreated)
Assay type: in vivo, mouse
[1] = time point A6 vs untreated (UT)

With CC(=O)Nc1ccc(O)cc1 [APAP, acetaminophen] the “avg_logFC Mrpl42” value [1] was −0.2845, the “avg_logFC Mrps18c” value [1] was −0.3663 and the “avg_logFC Msn” value [1] was 0.2602. For the same molecule, the “avg_logFC Mup2” value [1] was −0.5045, the “avg_logFC Mvd” value [1] was −0.2704 and the “avg_logFC Myo1b” value [1] was 0.2624. The “avg_logFC Naprt1” value [1] was −0.3381, the “avg_logFC Ndufa1” value [1] was −0.3645 and the “avg_logFC Ndufb3” value [1] was −0.3272. For the same molecule, the “avg_logFC Ndufb8” value [1] was −0.3481, the “avg_logFC Ndufc1” value [1] was −0.3444 and the “avg_logFC Ndufs4” value [1] was −0.3132. The “avg_logFC Ndufs8” value [1] was −0.3614, the “avg_logFC Ndufv3” value [1] was −0.3971 and the “avg_logFC Nedd8” value [1] was −0.3564. For the same molecule, the “avg_logFC Nedd41” value [1] was 0.2812, the “avg_logFC Net1” value [1] was 0.3479 and the “avg_logFC Nop10” value [1] was −0.2919. The “avg_logFC Nrp1” value [1] was 0.3608, the “avg_logFC Nucks1” value [1] was 0.3558 and the “avg_logFC Nudt4” value [1] was 0.2542. For the same molecule, the “avg_logFC Oaz1” value [1] was −0.3472, the “avg_logFC Otc” value [1] was −0.299 and the “avg_logFC Pacsin2” value [1] was 0.3708. For the same molecule, the “avg_logFC Palld” value [1] was 0.3414, the “avg_logFC Pank1” value [1] was −0.3527 and the “avg_logFC Paqr9” value [1] was −0.3323. The “avg_logFC Pet100” value [1] was −0.28, the “avg_logFC Phc2” value [1] was 0.312 and the “avg_logFC Pi4k2a” value [1] was 0.3536. For the same molecule, the “avg_logFC Pik3c2a” value [1] was 0.3249, the “avg_logFC Plk3” value [1] was 0.4166 and the “avg_logFC Pnkd” value [1] was −0.2928. For the same molecule, the “avg_logFC Ppp1r12a” value [1] was 0.3563, the “avg_logFC Prdx5” value [1] was −0.2821 and the “avg_logFC Proc” value [1] was −0.2707. For the same molecule, the “avg_logFC Psmb1” value [1] was −0.3585, the “avg_logFC Psmb3” value [1] was −0.3303 and the “avg_logFC Psmb6” value [1] was −0.3194. For the same molecule, the “avg_logFC Ptp4a1” value [1] was 0.2627, the “avg_logFC Ptpn2” value [1] was 0.2734 and the “avg_logFC Ptpn12” value [1] was 0.3342. For the same molecule, the “avg_logFC Purb” value [1] was 0.3525, the “avg_logFC Pvrl2” value [1] was −0.2613 and the “avg_logFC Pxk” value [1] was 0.2819. For the same molecule, the “avg_logFC Pxmp2” value [1] was −0.3671, the “avg_logFC Rab6a” value [1] was 0.3234 and the “avg_logFC Rbm25” value [1] was 0.4215. The “avg_logFC Rexo2” value [1] was −0.3263, the “avg_logFC Rlim” value [1] was 0.3102 and the “avg_logFC Rnaseh2c” value [1] was −0.3257. For the same molecule, the “avg_logFC Romo1” value [1] was −0.3359, the “avg_logFC Rps3” value [1] was −0.3493 and the “avg_logFC Rps9” value [1] was −0.3718. The “avg_logFC Rps10” value [1] was −0.3369, the “avg_logFC Rps21” value [1] was −0.3645 and the “avg_logFC Rsl1d1” value [1] was 0.3461. For the same molecule, the “avg_logFC S100a1” value [1] was −0.3743, the “avg_logFC Sar1b” value [1] was −0.3079 and the “avg_logFC Sbno1” value [1] was 0.3671. The “avg_logFC Sc4mol” value [1] was −0.3262, the “avg_logFC Scaf11” value [1] was 0.3598 and the “avg_logFC Scd1” value [1] was −0.4661. For the same molecule, the “avg_logFC Sdhb” value [1] was −0.2896, the “avg_logFC Sdhd” value [1] was −0.3353 and the “avg_logFC Sdr9c7” value [1] was −0.26. For the same molecule, the “avg_logFC Sdsl” value [1] was 0.2593, the “avg_logFC Sec61b” value [1] was −0.2903 and the “avg_logFC Selk” value [1] was −0.3383. For the same molecule, the “avg_logFC Sf1” value [1] was 0.3023, the “avg_logFC Sfpq” value [1] was 0.394 and the “avg_logFC Sgk1” value [1] was 0.2843. For the same molecule, the “avg_logFC Shb” value [1] was 0.3152, the “avg_logFC Sigmar1” value [1] was −0.3055 and the “avg_logFC Sirt3” value [1] was −0.346. The “avg_logFC Slc2a2” value [1] was −0.3123, the “avg_logFC Slc10a1” value [1] was −0.3258 and the “avg_logFC Slco1a1” value [1] was −0.3628. For the same molecule, the “avg_logFC Slco1a4” value [1] was 0.3137, the “avg_logFC Slirp” value [1] was −0.3085 and the “avg_logFC Smap2” value [1] was 0.3489. For the same molecule, the “avg_logFC Smdt1” value [1] was −0.3673, the “avg_logFC Smg1” value [1] was 0.335 and the “avg_logFC Srsf11” value [1] was 0.4012. For the same molecule, the “avg_logFC Stbd1” value [1] was −0.2732, the “avg_logFC Stk17b” value [1] was 0.2911 and the “avg_logFC Stom” value [1] was 0.3232. The “avg_logFC Sult1d1” value [1] was −0.3165, the “avg_logFC Tbl1xr1” value [1] was 0.3075 and the “avg_logFC Tcea3” value [1] was −0.355. For the same molecule, the “avg_logFC Tceb2” value [1] was −0.3207, the “avg_logFC Tgm2” value [1] was 0.3993 and the “avg_logFC Tgoln1” value [1] was 0.2657. For the same molecule, the “avg_logFC Timm8b” value [1] was −0.3936, the “avg_logFC Tjp1” value [1] was 0.2862 and the “avg_logFC Tm7sf2” value [1] was −0.3164. For the same molecule, the “avg_logFC Tmbim6” value [1] was −0.2711, the “avg_logFC Tmem37” value [1] was −0.2822 and the “avg_logFC Tmem86b” value [1] was −0.2582. For the same molecule, the “avg_logFC Tmem106b” value [1] was 0.2802, the “avg_logFC Tmem147” value [1] was −0.2838 and the “avg_logFC Tmem150a” value [1] was −0.2535. For the same molecule, the “avg_logFC Tmem160” value [1] was −0.339, the “avg_logFC Tmem242” value [1] was −0.2725 and the “avg_logFC Tmem243” value [1] was −0.3791. The “avg_logFC Tmem258” value [1] was −0.2769, the “avg_logFC Tnks2” value [1] was 0.3176 and the “avg_logFC Tob1” value [1] was −0.3387. The “avg_logFC Tpr” value [1] was 0.4409, the “avg_logFC Tsc22d1” value [1] was −0.2997 and the “avg_logFC Tspo” value [1] was −0.3157. The “avg_logFC Txn1” value [1] was −0.3091, the “avg_logFC Ubl5” value [1] was −0.3033 and the “avg_logFC Ucp2” value [1] was 0.2612. The “avg_logFC Ugt2a3” value [1] was −0.3075, the “avg_logFC Uqcc2” value [1] was −0.3269 and the “avg_logFC Wdr43” value [1] was 0.3438. For the same molecule, the “avg_logFC Yap1” value [1] was 0.3281, the “avg_logFC Zfp683” value [1] was −0.4217 and the “avg_logFC Zyx” value [1] was 0.2983. The “avg_logFC mmu-mir-6236” value [1] was 0.5206, the “Adck3 pct.1” value (time point A24) was 0.68 and the “Arhgap5 pct.1” value (time point A24) was 0.566. The “Arhgef12 pct.1” value (time point A24) was 0.541, the “Arl5a pct.1” value (time point A24) was 0.459 and the “Atp1a1 pct.1” value (time point A24) was 0.532. The “Atp5e pct.1” value (time point A24) was 0.688, the “Atp5f1 pct.1” value (time point A24) was 0.8 and the “Atp6v1f pct.1” value (time point A24) was 0.244. The “Atp11c pct.1” value (time point A24) was 0.649, the “Atp13a3 pct.1” value (time point A24) was 0.546 and the “Azin1 pct.1” value (time point A24) was 0.46. The “Bnip3 pct.1” value (time point A24) was 0.39, the “Brd2 pct.1” value (time point A24) was 0.512 and the “Bzw1 pct.1” value (time point A24) was 0.487. For the same molecule, the “Cald1 pct.1” value (time point A24) was 0.79, the “Caprin1 pct.1” value (time point A24) was 0.567 and the “Ces3b pct.1” value (time point A24) was 0.683. The “Copb2 pct.1” value (time point A24) was 0.595, the “Copz1 pct.1” value (time point A24) was 0.501 and the “Cox7b pct.1” value (time point A24) was 0.768. The “Cpne3 pct.1” value (time point A24) was 0.456, the “Ctnnb1 pct.1” value (time point A24) was 0.566 and the “Cyp4a14 pct.1” value (time point A24) was 0.245. For the same molecule, the “Cyp27a1 pct.1” value (time point A24) was 0.759, the “Ddost pct.1” value (time point A24) was 0.493 and the “Dennd5b pct.1” value (time point A24) was 0.476. The “Deptor pct.1” value (time point A24) was 0.583, the “Dnajb9 pct.1” value (time point A24) was 0.373 and the “Dnajb11 pct.1” value (time point A24) was 0.557. For the same molecule, the “Eci1 pct.1” value (time point A24) was 0.581, the “Edem1 pct.1” value (time point A24) was 0.566 and the “Ehhadh pct.1” value (time point A24) was 0.552. The “Eif4b pct.1” value (time point A24) was 0.542, the “Ell2 pct.1” value (time point A24) was 0.552 and the “Eprs pct.1” value (time point A24) was 0.587. The “Erbb2ip pct.1” value (time point A24) was 0.482, the “Erp44 pct.1” value (time point A24) was 0.469 and the “Esd pct.1” value (time point A24) was 0.67. For the same molecule, the “Fam120a pct.1” value (time point A24) was 0.51, the “Fasn pct.1” value (time point A24) was 0.449 and the “Fcgrt pct.1” value (time point A24) was 0.461. For the same molecule, the “Gch1 pct.1” value (time point A24) was 0.502, the “Gm23935 pct.1” value (time point A24) was 0.919 and the “Gm24245 pct.1” value (time point A24) was 0.369. For the same molecule, the “Gpam pct.1” value (time point A24) was 0.329, the “Grlf1 pct.1” value (time point A24) was 0.413 and the “Gstm3 pct.1” value (time point A24) was 0.293. The “H6pd pct.1” value (time point A24) was 0.675, the “Id3 pct.1” value (time point A24) was 0.278 and the “Ide pct.1” value (time point A24) was 0.604. The “Iqgap2 pct.1” value (time point A24) was 0.748, the “Ireb2 pct.1” value (time point A24) was 0.469 and the “Jak1 pct.1” value (time point A24) was 0.482. For the same molecule, the “Lasp1 pct.1” value (time point A24) was 0.361, the “Lgr4 pct.1” value (time point A24) was 0.399 and the “Lpin2 pct.1” value (time point A24) was 0.7. For the same molecule, the “Macf1 pct.1” value (time point A24) was 0.349, the “Magt1 pct.1” value (time point A24) was 0.52 and the “Man2a1 pct.1” value (time point A24) was 0.675. The “Mbnl1 pct.1” value (time point A24) was 0.428, the “Met pct.1” value (time point A24) was 0.434 and the “Mt1 pct.1” value (time point A24) was 0.41. The “Mtss1 pct.1” value (time point A24) was 0.581, the “Nadk2 pct.1” value (time point A24) was 0.539 and the “Narf pct.1” value (time point A24) was 0.411. For the same molecule, the “Ndufa6 pct.1” value (time point A24) was 0.692, the “Ndufb6 pct.1” value (time point A24) was 0.636 and the “Ndufc2 pct.1” value (time point A24) was 0.465. For the same molecule, the “Nop10 pct.1” value (time point A24) was 0.227, the “Nr1i3 pct.1” value (time point A24) was 0.237 and the “Nrp1 pct.1” value (time point A24) was 0.426. The “Osbp19 pct.1” value (time point A24) was 0.569, the “Osbpl1a pct.1” value (time point A24) was 0.592 and the “Ostc pct.1” value (time point A24) was 0.514. The “Pik3c2a pct.1” value (time point A24) was 0.36, the “Plin5 pct.1” value (time point A24) was 0.181 and the “Prdx4 pct.1” value (time point A24) was 0.47. For the same molecule, the “Prdx5 pct.1” value (time point A24) was 0.731, the “Prkaa2 pct.1” value (time point A24) was 0.451 and the “Prox1 pct.1” value (time point A24) was 0.477. The “Proz pct.1” value (time point A24) was 0.622.
